One series in a line: in vitro. Format: cell-based. Conditions: human.
The test system of series [1] is ROS generation in Myelomonocytic HL-60 cells. Nature of the series: cell based antioxidant assay, inhibition of PMA-induced ROS generation. The note with it: for Antioxidant IC50: inhibition of PMA-induced ROS generation in HL-60 cells; for IC50: Homo sapiens, HL-60, read-out: Antioxidant IC50.
Series [2] deals with T1, recombinant human Monoamine Oxidase A (MAO-A) (Homo sapiens, UniProt P21397).
T1 sequence (P21397 1-527): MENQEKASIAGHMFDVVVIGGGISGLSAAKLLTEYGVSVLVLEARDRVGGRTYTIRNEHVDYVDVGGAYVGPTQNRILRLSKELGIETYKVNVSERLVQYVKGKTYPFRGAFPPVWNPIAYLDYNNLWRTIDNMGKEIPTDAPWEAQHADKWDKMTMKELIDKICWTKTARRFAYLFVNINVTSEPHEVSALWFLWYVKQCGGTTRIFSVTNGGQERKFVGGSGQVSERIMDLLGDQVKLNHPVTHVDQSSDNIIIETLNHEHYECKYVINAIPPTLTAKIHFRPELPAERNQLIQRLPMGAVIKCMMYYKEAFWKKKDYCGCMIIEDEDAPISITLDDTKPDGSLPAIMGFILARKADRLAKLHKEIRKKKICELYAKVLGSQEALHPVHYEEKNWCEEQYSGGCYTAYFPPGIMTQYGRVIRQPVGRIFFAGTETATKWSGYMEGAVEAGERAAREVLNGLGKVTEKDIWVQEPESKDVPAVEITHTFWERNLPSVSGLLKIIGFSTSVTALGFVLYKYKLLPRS
Nature of the series: kynuramine deamination assay, recombinant human MAO-A. The note with it: for MAO-A inhibitory activity in words: pure compounds; for MAO-A activity more potent than MAO-B: ratio of MAO-B to MAO-A IC50. The series is classed as biochemical.

In series [3] the target is T2, recombinant human Monoamine Oxidase B (MAO-B) (Homo sapiens, UniProt P27338).
T2 sequence (P27338 1-520): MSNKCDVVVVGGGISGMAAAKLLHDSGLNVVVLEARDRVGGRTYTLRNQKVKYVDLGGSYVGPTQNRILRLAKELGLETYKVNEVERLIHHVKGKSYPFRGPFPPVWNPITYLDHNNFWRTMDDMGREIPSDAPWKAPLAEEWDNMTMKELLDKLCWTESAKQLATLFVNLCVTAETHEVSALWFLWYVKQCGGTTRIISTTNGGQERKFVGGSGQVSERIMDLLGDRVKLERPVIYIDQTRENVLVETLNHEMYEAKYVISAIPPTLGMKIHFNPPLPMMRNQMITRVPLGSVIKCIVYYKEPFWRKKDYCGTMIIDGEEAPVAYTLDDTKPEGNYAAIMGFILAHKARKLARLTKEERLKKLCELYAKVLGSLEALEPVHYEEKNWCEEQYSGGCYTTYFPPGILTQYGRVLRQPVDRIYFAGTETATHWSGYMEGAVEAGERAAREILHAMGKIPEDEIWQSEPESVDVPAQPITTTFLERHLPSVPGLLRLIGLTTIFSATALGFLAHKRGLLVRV
Put plainly: biochemical. Format: biochemical.

The test system of another series is HL-60 cells. Nature of the series: in vitro. The series is classed as cell-based. Conditions: HL-60 cells, 48 hours, XTT. A general note: Formazan colour is commonly taken as a measure of viable cells.
For the next series, the system named is rat striatal slices. Conditions: ref Schwartz et al., 2003; cited from earlier work.
For a further series, the system named is MAO-A. Conditions: liver homogenate; ref Schwartz et al., 2003; cited from earlier work.
In another series the test system is PC12 cells. The note with it: ref Cho et al., 2008, Heo and Lee, 2005; cited from earlier work.
Setting [4] is: read-out: MAO-B IC50, pure compounds and standards.
Setting [5] is: read-out: MAO-A IC50, pure compounds and standards.

The source of these data is article PMC2828149 (Journal of ethnopharmacology, 2009).

Converted amounts (≈) assume the structure as drawn. Read-outs that look alike come from different tables or passages of the source. Where only a bound is given, the exact number is not on record here.

Usually IC50 stands for the concentration needed to halve the response being measured. In turn, `COc1cccc2c1C(=O)c1c(O)c3c(c(O)c1C2=O)C[C@@](O)(C(=O)CO)C[C@@H]3O[C@H]1C[C@H](N)[C@H](O)[C@H](C)O1` [Doxorubicin, reference compound] yielded an IC50 at 48 h in the series “in vitro” of 0.2 to 0.35 mg/L (≈ 0.368 to 0.644 µM).

On to `O=C1O[C@H]([C@@H](O)CO)C(O)=C1O` [Vitamin C, reference compound], for which the “Antioxidant IC50” value in series [1] worked out at 1.34 mg/L.

Regarding `Cc1[nH]ccc2c1[nH]c1cc(=O)ccc12` [compound 3, harmol], in series [2], the IC50 turned out to be 0.018 µM and the “MAO-A inhibitory activity in words” value was “much weaker than 6 or 7”.

Consider `COc1ccc2c3c([nH]c2c1)[C@@H](C)NCC3` [compound 5, tetrahydroharmine], for which the half-inhibitory concentration (IC50) is > 100 µM in series [3] (setting [4]) and 0.074 µM in series [2] (setting [5]). In addition, the “Cytotoxicity IC50” value in the series on HL-60 cells is listed as “NC (NC = No cytotoxicity to HL-60 cells up to 31.25 µg/mL)”. The “Antioxidant IC50” value in series [1] was “NA (NA = No antioxidant activity upto 31.25 µg/mL)”. Moreover, the “MAO-A inhibitory activity in words” value in series [2] is on record as “much weaker than 6 or 7”.

`COc1ccc2c3c([nH]c2c1)C(C)=NCC3` [compound 6, harmaline]: the values for the IC50 in series [3] and in series [1] were 25 µM and > 31.2 mg/L, respectively. For the same compound, the IC50 at 48 h in the series “in vitro” was 25 mg/L (≈ 117 µM). Also, the “MAO-A activity more potent than MAO-B” value in series [2] is on record as > 10,000 fold.

For `COc1ccc2c(c1)[nH]c1c(C)nccc12` [compound 7, harmine], the “release of dopamine in words” value in the series on rat striatal slices was “increase”. The IC50 in series [3] is 20 µM; in series [1], > 31.2 mg/L. In addition, in “in vitro”, the half-maximal inhibitory concentration (IC50) at 48 h was > 31.2 mg/L. Also, the “MAO-A activity more potent than MAO-B” value in series [2] is reported as > 10,000 fold. Besides, in the series with MAO-A, the “inhibition of MAO-A in words” value is given as “concentration-dependent inhibition”.

In the case of `Oc1cc(O)c2c(c1)O[C@H](c1ccc(O)c(O)c1)[C@H](O)C2` [compound 8, (−)-2R,3R–Epicatechin], the values for the IC50 in series [3], in series [1] and in series [2] were 65 µM, < 0.13 mg/L and 51.7 µM, respectively. For the same compound, the IC50 at 48 h in the series “in vitro” is 6.3 mg/L (≈ 21.7 µM). Moreover, the “protection from Aβ-induced neurotoxicity in words” value in the series with PC12 cells was “protection”.

On to `Oc1cc(O)c2c(c1)O[C@H](c1ccc(O)c(O)c1)[C@H](O)[C@H]2c1c(O)cc(O)c2c1O[C@H](c1ccc(O)c(O)c1)[C@H](O)C2` [compound 9, (−)-2R,3R-epicatechin-4β,8-(−)-2R,3R-epicatechin], for which the IC50 in series [3] (setting [4]) was found to be 35 µM; in series [2] (setting [5]), 8.5 µM. Moreover, in the series with HL-60 cells, the “Cytotoxicity IC50” value is on record as “NC (NC = No cytotoxicity to HL-60 cells up to 31.25 µg/mL)”. Further, the “Antioxidant IC50” value in series [1] was 0.57 mg/L.

On to `Cc1c(C)c2c(c(C)c1O)CCC(C)(C(=O)O)O2` (stereo not drawn) [trolox, reference compound], for which, in series [1], the 50% inhibitory concentration (IC50) was found to be 0.14 mg/L (≈ 0.559 µM).

banistenoside A [compound 1]: the IC50 in series [3] (setting [4]) was > 100 µM; in series [2] (setting [5]), 4.9 µM. For the same compound, the “Cytotoxicity IC50” value in the series with HL-60 cells is >12.5 mg/L. Further, the “Antioxidant IC50” value in series [1] was “NA (NA = No antioxidant activity upto 31.25 µg/mL)”.

For the compound banistenoside B [compound 2], the results for the IC50 in series [3] (setting [4]) and in series [2] (setting [5]) were > 100 µM and 21.5 µM, respectively. Moreover, the “Cytotoxicity IC50” value with HL-60 cells was determined as 7.8 mg/L.
